US12404252B2, “Salt of 2-amino-2-(2-(1-decyl-1H-1,2,3-triazol-4-yl)ethyl)propane-1,3-diol, and pharmaceutical composition containing same” (NEXTGEN BIOSCIENCE CO., LTD, priority 2021, dated 2025)
Where two headings read alike, the source gives them in different places.

Assays:
[1] = tested on: adenine-induced chronic kidney disease model; assay: Adenine-induced chronic kidney disease model; type: in vivo; settings: adenine-induced CKD mice, 10 mg/kg/day orally, 3 weeks
Experimental: The antifibrotic effect of Compound 1a was evaluated using an adenine-induced chronic kidney disease model. 0.5% adenine (in 0.5% CMC) was orally administered to mice for 4 weeks to induce chronic kidney disease, and Compound 1a at 10, 30, and 90 mg/kg/day and the positive control substance telmisartan 10 mg/kg/day were administered orally to the mice for 3 weeks, followed by measurement of serum creatinine, serum BUN, and kidney hydroxyproline, and histopathology. In addition, the tubular-interstitial index value was determined based on the above measurement results.

[2] = tested on: unilateral ureteral obstruction (UUO) model; assay: Unilateral ureteral obstruction (UUO) renal fibrosis model; type: in vivo; settings: UUO mice, 30 mg/kg/day orally, 2 weeks
Experimental: The antifibrotic effect of Compound 1a in renal disease was evaluated using the unilateral ureteral obstruction (UUO) model, which is a renal fibrotic disease model. Kidney fibrosis was induced by unilateral ureteral obstruction of mice, and then Compound 1a at 10, 30, and 90 mg/kg/day and the positive control substance telmisartan at 30 mg/kg/day were orally administered to the mice once a day for 2 weeks.

[3] = Hygroscopicity test by DVS; type: physicochemical; settings: for DVS remark (adsorption at 90% RH): water adsorption at 90% RH
Excerpt: Dynamic vapor sorption (DVS) is a method that has been used for a long time to investigate the interactions between active pharmaceutical ingredients (APIs), and pharmaceutical preparations and water. Here, to analyze the water absorption rate of a sample at a specific temperature, measurements are made by exposing the sample to the desired relative humidity using a DVS water sorption analyzer (hygroscopicity analyzer) until the change in weight of the sample stabilizes.

[4] = target: hERG potassium ion channel (Homo sapiens, UniProt Q12809)
[5] = pKa of the free base; type: physicochemical; settings: natural conditions
Experimental: The method for preparing the salt of the present invention and the process of selecting the salt thereby are as follows. […] Specifically, acids that were appropriate for matching the pKa of the free base of Compound 1 described above were calculated by computer, and these acids were mainly identified as acids having a pKa of about 2 to 5.

[6] = Oxidation stability test (30% H2O2); type: physicochemical
[7] = tested on: dextran sulfate sodium (DSS)-induced colitis model; assay: DSS-induced colitis mouse model, disease activity index; type: in vivo; settings: DSS mice
Experimental: The effectiveness of Compound 1a against inflammatory bowel disease was evaluated using the dextran sulfate sodium (DSS)-induced colitis model. In the mouse model, inflammatory bowel disease was induced by administering DSS to mice at a concentration of 2.5% via drinking water. Mice were divided into a test group administered Compound 1a, a positive control group administered ozanimod or MTX (methotrexate), a vehicle group, and a normal control group, and each group had n=10. Compound 1, a compound of the present invention, was orally administered at doses of 5 and 10 mg/kg once a day for 7 days to the inflammatory bowel disease-induced model, and ozanimod as a positive control was administered orally at a dose of 5 mg/kg once a day, and MTX (methotrexate) as a positive control was administered intraperitoneally at a dose of 3 mg/kg three times a week.
DAI represents the total score of weight loss relative to initial weight, stool consistency, and degree of intestinal bleeding of the mouse. The criteria for calculation of DAI are shown in Table 10 below, and DAI was evaluated on days 0, 1, 2, 3, 4, 5, 6, 7, and 8.

[8] = Corrosion of a sample stored together with the substance at 60° C.; type: physicochemical; settings: stored together with the sample for 2 weeks at 60° C.
Experimental: FIG. 12 depicts photograph showing the results of checking the degree of corrosion of a sample after storing each of the free base of Compound 1, Compound 1a, and a hydrochloride salt of Compound 1 together with the sample under 60° C. conditions for 2 weeks.

[9] = Standard stock solution stability, 60° C./75±5% RH; type: physicochemical; settings: 2 weeks under 60° C./75±5% RH
Experimental: The stability of the crystalline compound was under 60° C./75±5% RH conditions, and the purity thereof was examined by HPLC method. The experimental conditions used in the stability test for Compound 1a and the test results are as follows.
60° C./75±5% RH: Conditions in which the vial was open and upright.
(§1) A required amount (˜1 mg) of solid material was dissolved in 1 mL of a diluent (1:1 methanol/water), and the prepared solution was analyzed by HPLC.

[10] = Standard stock solution stability, 40° C./75±5% RH; type: physicochemical; settings: 40° C./75% RH
Experimental: The stability of the crystalline compound was examined at 40° C./75±5% RH. Physical stability was examined through comparative XRPD analysis before and after the test, and chemical stability was examined by HPLC method. The experimental conditions used in the stability test for Compound 1a and the test results are as follows.
40° C./75±5% RH: Conditions in which the vial was open and upright.
as §1

[11] = Photostability test; type: physicochemical
Experimental: For a photostability test, 10 mg of Compound 1a was exposed to 1.2 million lux hours of ultraviolet and visible light at room temperature. For an oxidation stability test, 0.2 mL of 30% H2O2 and 1 mg of Compound 1a were placed in a 2-mL vial and stored at 25° C. for up to 24 hours. The photostability and oxidation stability conditions used to evaluate the fumarate salt of Compound 1 and the evaluation results are as follows.

[12] = Solubility in aqueous media (HPLC); type: physicochemical; settings: same conditions as Compound 1a, some samples
Experimental: The solubility of Compound 1a prepared in Example 1 was evaluated in several different media, including pH 1.2 hydrochloric acid buffer, pH 3.0 citrate buffer, pH 4.7 acetate buffer, pH 6.8 phosphate buffer, simulated gastric fluid, fasted-state simulated intestinal fluid, fed-state simulated intestinal fluid, and water. About 2.17 mg of sample (based on the free base of Compound 1) for each medium was taken into a 2-mL transparent glass vial and […] of medium was added (constituents of the salt were considered Compound 1: counterion=1:0.5; target concentration: 2 mg/mL). The mixture was stirred using a magnetic stirrer at 250 RPM for 24 hours at 25° C. Next, the pH and appearance of the mixture were recorded and the mixture was filtered through a MultiScreen® HTS-HV 96-well plate (manufactured by Merck; 0.45-μm hydrophilic, low-protein-binding Durapore® membrane). Solubility was determined using HPLC, and a calibration curve was created by injecting a known concentration of Compound 1a. The filtered sample was injected (diluted appropriately as necessary) and the concentration of Compound 1a (mg/mL) in the filtrate was calculated from the calibration curve (taking salt coefficient into account). The analysis results are as follows.

[13] = pH stability and salinity stability, 40±2° C.; type: physicochemical
Experimental: pH and salinity stability tests for the hemifumirate salt of Compound 1 were performed at an initial target concentration of 2 mg/mL. The pH and salinity stability conditions used to evaluate the hemifumirate salt of Compound 1 and the evaluation results are as follows.
• 40±2° C.: Conditions in which the vial was capped and upright • Storage container for stability: 2-mL screw neck clear glass vial (manufactured by La-Pha-Pack) • Target concentration: ˜ 2 mg/mL (adding the sample to 1 mL of medium, followed by vortexing for 30 seconds) • 500 μL of the test mixture was dissolved in 500 μL of a diluent (1:1 methanol/water), and the prepared solution was analyzed by HPLC without filtration.

[14] = pH stability and salinity stability, 40±2° C.; type: physicochemical; remark: listed apart in the source

Sequence of hERG potassium ion channel (Q12809 whole entry): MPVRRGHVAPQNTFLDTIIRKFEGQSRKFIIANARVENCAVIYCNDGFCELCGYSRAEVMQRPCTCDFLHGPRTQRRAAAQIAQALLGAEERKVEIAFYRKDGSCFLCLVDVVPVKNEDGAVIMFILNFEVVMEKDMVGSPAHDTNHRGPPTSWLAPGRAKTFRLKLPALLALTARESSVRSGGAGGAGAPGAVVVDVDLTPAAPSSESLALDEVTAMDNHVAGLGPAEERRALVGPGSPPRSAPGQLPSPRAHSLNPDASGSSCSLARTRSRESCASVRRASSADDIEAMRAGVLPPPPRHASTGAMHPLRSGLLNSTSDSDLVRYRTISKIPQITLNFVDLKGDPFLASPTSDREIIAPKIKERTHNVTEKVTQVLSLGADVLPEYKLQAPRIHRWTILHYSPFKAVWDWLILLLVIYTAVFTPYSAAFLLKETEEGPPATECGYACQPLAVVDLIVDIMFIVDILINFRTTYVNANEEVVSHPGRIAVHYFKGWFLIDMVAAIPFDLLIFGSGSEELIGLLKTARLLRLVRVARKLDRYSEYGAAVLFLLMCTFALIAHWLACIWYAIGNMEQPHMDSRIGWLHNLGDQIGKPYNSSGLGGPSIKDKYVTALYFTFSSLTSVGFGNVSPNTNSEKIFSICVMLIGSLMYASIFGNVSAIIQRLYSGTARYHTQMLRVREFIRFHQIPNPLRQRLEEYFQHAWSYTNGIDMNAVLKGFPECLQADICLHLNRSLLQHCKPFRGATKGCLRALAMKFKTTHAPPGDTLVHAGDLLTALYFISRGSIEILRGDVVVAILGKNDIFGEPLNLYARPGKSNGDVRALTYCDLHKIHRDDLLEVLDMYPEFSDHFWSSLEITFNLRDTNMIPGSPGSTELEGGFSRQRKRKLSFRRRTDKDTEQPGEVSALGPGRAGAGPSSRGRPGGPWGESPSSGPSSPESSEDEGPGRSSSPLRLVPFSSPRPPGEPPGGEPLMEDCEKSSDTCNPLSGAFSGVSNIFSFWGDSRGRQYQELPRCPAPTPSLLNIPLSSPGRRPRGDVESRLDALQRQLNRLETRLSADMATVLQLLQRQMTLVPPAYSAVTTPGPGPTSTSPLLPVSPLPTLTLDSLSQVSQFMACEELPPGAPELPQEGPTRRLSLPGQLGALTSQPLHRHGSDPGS

## CCCc1nc2c(C)cc(-c3nc4ccccc4n3C)cc2n1Cc1ccc(-c2ccccc2C(=O)O)cc1 [telmisartan, reference compound]
[1]
  kidney fibrosis (tubular-interstitial index): statistically significantly decreased
[2]
  Kidney hydroxyproline: statistically significantly reduced

## CCCCCCCCCCn1cc(CCC(N)(CO)CO)nn1 [Compound 1b, 2-amino-2-(2-(1-decyl-1H-1,2,3-triazol-4-yl)ethyl) propane-1,3-diol]
[3]; 90% RH, listed as Example 2
  hygroscopicity (DVS evaluation, in words): low hygroscopicity
[3]; listed as Example 2
  DVS remark (adsorption at 90% RH): 4.563%

## CC(=O)O.CCCCCCCCCCn1cc(CCC(N)(CO)CO)nn1 [compound 4]
[3]
  DVS remark (adsorption at 90% RH): 33.67%

## CCCCCCCCCCn1cc(CCC(N)(CO)CO)nn1 [Compound 1, 2-Amino-2-(2-(1-decyl-1H-1,2,3-triazol-4-yl)ethyl) propane-1,3-diol]
[4]; 1 μM
  compensated suppression rate (%) of hERG channel currents: 9.94±1.96%
[4]; 3 μM
  compensated suppression rate (%) of hERG channel currents: 13.98±4.48%
[4]; 10 μM
  compensated suppression rate (%) of hERG channel currents: 35.03±12.09%
[4]; 30 μM
  compensated suppression rate (%) of hERG channel currents: 82.62±7.31%
[5]
  pKa: 8.12
[6]; oxidative stress conditions, after 20 hours
  decomposition rate: ≥ 8%

## CCCCCCCCCCn1cc(CCC(N)(CO)CO)nn1.O=C(O)CCCCC(=O)O [compound 5]
[3]
  DVS remark (adsorption at 90% RH): 22.46%

## CC(C)Oc1ccc(-c2nc(-c3cccc4c3CC[C@@H]4NCCO)no2)cc1C#N [ozanimod, reference compound]
[7]; 5 mg/kg orally once a day
  disease activity index (DAI) compared to negative control group (vehicle): statistically significantly decreased

## CCCCCCCCCCn1cc(CCC(N)(CO)CO)nn1.O=C(O)CCC(=O)O [compound 2]
[3]
  DVS remark (adsorption at 90% RH): 19.42%

## CN(Cc1cnc2nc(N)nc(N)c2n1)c1ccc(C(=O)N[C@@H](CCC(=O)O)C(=O)O)cc1 [MTX, methotrexate, reference compound]
[7]; 3 mg/kg intraperitoneally three times a week
  disease activity index (DAI) compared to negative control group (vehicle): statistically significantly decreased

## CCCCCCCCCCn1cc(CCC(N)(CO)CO)nn1.Cl [Comparative Example 1, reference compound]
[8]
  degree of corrosion of the sample: corrosion occurred
[3]; natural conditions
  behaviour in natural conditions: exhibited deliquescence
[3]
  DVS remark (adsorption at 90% RH): 49.5%
[3]; listed as hydrochloride salt of Compound 1
  DVS remark (adsorption at 90% RH): 49.5%
[9]
  change in appearance: turned into a liquid phase
[10]; 1-week
  Purity %: 99.00%
[10]; 1-week, listed as Hydrochloride salt of Compound 1
  XRPD (physical stability): Turned into liquid
[10]; 1-week, listed as hydrochloride salt of Compound 1
  XRPD (physical stability): turned into a liquid phase
[10]; 2-week
  Purity %: 99.22%
[10]; Initial
  Purity %: 99.34%
  XRPD (physical stability): Crystalline
[11]; Photostability 1.2 million lux hours exposed
  Purity %: 98.75%
[11]; Photostability 1.2 million lux hours unexposed
  Purity %: 99.35%
[12]
  appearance in aqueous media: undissolved suspension form in some samples
[13]; Saline (0.9% NaCl)/40° C., Initial
  Purity %: 99.43%
[13]; pH 6.8 phosphate buffer/40° C., 1-week
  Purity %: 98.04%
[13]; pH 6.8 phosphate buffer/40° C., Initial
  Purity %: 98.93%
[6]; 30% H2O2 60° C. for 20 hours
  Purity %: 91.23%
[14]; Saline (0.9% NaCl)/40° C., 1-week, listed as Hydrochloride salt of Compound 1
  Purity %: 98.00%
[14]; Saline (0.9% NaCl)/40° C., 1-week, listed as hydrochloride salt of Compound 1
  Purity %: ≤ 98%
[14]; pH 6.8 phosphate buffer/40° C., 2-week, listed as Hydrochloride salt of Compound 1
  Purity %: 97.87%
[14]; pH 6.8 phosphate buffer/40° C., 2-week, listed as hydrochloride salt of Compound 1
  Purity %: less than 98%

## CCCCCCCCCCn1cc(CCC(N)(CO)CO)nn1.O=C(O)CC(O)(CC(=O)O)C(=O)O [compound 6]
[3]
  DVS remark (adsorption at 90% RH): 22.80%

## CC(=O)O.CCCCCCCCCCn1cc(CCC(N)(CO)CO)nn1 [compound 3]
[3]
  DVS remark (adsorption at 90% RH): 34.33%
